Reference: patent publication US8975246B2, “Bile acid or bile salt fatty acid conjugates” (Galmed Research and Development Ltd., priority 2001, dated 2015)

Test system: Golden Syrian Hamsters
Assay: Serum cholesterol of hamsters on lithogenic diet
Format: in vivo
Conditions: Lithogenic diet 1 + BAFAC II 150 mg/kg/day by gavage, 10 W
Protocol: Golden Syrian Hamsters-(Anilab, Rehovot, Israel) 4-6 weeks old weighing 90-110 gm were used. They were fed a lithogenic diet (No. 1) consisting of their regular diet supplemented with (w/w) cholesterol 1%, Palmitic Acid 1.2%, Corn Oil 2% (modified from Ayvad et al., Lipids, 1992; 27:993-998) for 10 weeks. Half of the animals were given in addition 3β-arachidylamido-7α,12α-dihydroxy-5β-cholan-24-oic acid at a dose of 150 mg/kg/day suspended in saline, by intragastric gavage. The control animals were similarly given an equal volume of saline. After ten weeks the animals were anesthetized, heart blood was drawn for analysis. The liver and other organs were removed. Serum cholesterol levels were determined by autoanalyzer.

`CCCCCCCCCCCCCCCCCCCC(=O)N[C@H]1CC[C@@]2(C)[C@@H](C1)C[C@@H](O)[C@@H]1[C@@H]2C[C@H](O)[C@]2(C)[C@@H]([C@H](C)CCC(=O)O)CC[C@@H]12` [Aramchol, 3β-arachidylamido-7α,12α-dihydroxy-5β-cholan-24-oic acid] was tested, and the “Serum Cholesterol (mean + StD)” value was 202 (59.6) mg %.
